For seven cell lines, relative viability results are on record in the supplement of paper PMC10307832.

Common to all, as to assay: relative viability (nuclei count vs DMSO), 5 days (fraction); higher = more cells survive
Compound in the assay “XMD8-85 + Alpelisib”: CN1CCN(CC1)C2=CC(=C(C=C2)NC3=NC=C4C(=N3)N(C5=CC=CC=C5C(=O)N4C)C)OC [XMD8-85] + Cc1nc(NC(=O)N2CCC[C@H]2C(N)=O)sc1-c1ccnc(C(C)(C)C(F)(F)F)c1 [Alpelisib] (partner 2 µM)
In short, it runs like this: (§1)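 The day after seeding in 1536-well plates, lung cancer cell lines were treated by pin tool with a single drug, or with a fixed anchor-drug dose together with five library-drug doses (not always all listed) in √10 steps. After 5 days, a combined fix-and-stain solution (final 0.05% Triton X-100, 1% formaldehyde, 1 ug/ml Hoechst) was added. Nuclei counted on 4× images gave relative viability as treated counts over vehicle counts, reported as the median of duplicate plates.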

Compound in the assay “4EGI-1 + Pemetrexed”: O=C(O)C(Cc1ccccc1[N+](=O)[O-])=NNc1nc(-c2ccc(Cl)c(Cl)c2)cs1 (mixture of isomers) [4EGI-1] + Nc1nc2[nH]cc(CCc3ccc(C(=O)N[C@@H](CCC(=O)O)C(=O)O)cc3)c2c(=O)[nH]1 [Pemetrexed] (partner 0.2 µM)
Put shortly:
as §1

Compound in the assay “XMD8-85 + Palbociclib”: CN1CCN(CC1)C2=CC(=C(C=C2)NC3=NC=C4C(=N3)N(C5=CC=CC=C5C(=O)N4C)C)OC [XMD8-85] + CC(=O)c1c(C)c2cnc(Nc3ccc(N4CCNCC4)cn3)nc2n(C2CCCC2)c1=O [Palbociclib] (partner 0.5 µM)
Put shortly:
as §1

Compound in the assay “4EGI-1 + Pictilisib”: O=C(O)C(Cc1ccccc1[N+](=O)[O-])=NNc1nc(-c2ccc(Cl)c(Cl)c2)cs1 (mixture of isomers) [4EGI-1] + CS(=O)(=O)N1CCN(Cc2cc3nc(-c4cccc5[nH]ncc45)nc(N4CCOCC4)c3s2)CC1 [Pictilisib] (partner 1 µM)
In short, it runs like this:
as §1

On to NCI-H520, for which the relative viability with XMD8-85 + Alpelisib (first compound 0.08 µM) worked out at 0.891; with XMD8-85 + Alpelisib (first compound 0.253 µM), 0.918; with XMD8-85 + Alpelisib (first compound 0.8 µM), 0.866; in the assay with XMD8-85 + Alpelisib (first compound 2.53 µM), 0.854; with XMD8-85 + Alpelisib (first compound 8 µM) it was 0.515; in the assay with 4EGI-1 + Pemetrexed (first compound 0.5 µM), 0.674. Also, the relative viability in the assay with 4EGI-1 + Pemetrexed (first compound 1.581 µM) stood at 0.704; with 4EGI-1 + Pemetrexed (first compound 5 µM), 0.677; in the assay with 4EGI-1 + Pemetrexed (first compound 15.81 µM) it was 0.655; with 4EGI-1 + Pemetrexed (first compound 50 µM) it was 0.123; with XMD8-85 + Palbociclib (first compound 0.08 µM) it was 0.181; with XMD8-85 + Palbociclib (first compound 0.253 µM), 0.211. Further, the relative viability stood at 0.199 with XMD8-85 + Palbociclib (first compound 0.8 µM); 0.221 with XMD8-85 + Palbociclib (first compound 2.53 µM); 0.196 in the assay with XMD8-85 + Palbociclib (first compound 8 µM); 0.332 in the assay with 4EGI-1 + Pictilisib (first compound 0.5 µM); 0.315 with 4EGI-1 + Pictilisib (first compound 1.581 µM); 0.378 in the assay with 4EGI-1 + Pictilisib (first compound 5 µM). The figures for the relative viability in the assay with 4EGI-1 + Pictilisib (first compound 15.81 µM) and with 4EGI-1 + Pictilisib (first compound 50 µM) were 0.367 and 0.162, respectively.
For the cell line NCI-H647, the relative viability with XMD8-85 + Alpelisib (first compound 0.08 µM) came to 0.837; in the assay with XMD8-85 + Alpelisib (first compound 0.253 µM) it was 1.18; in the assay with XMD8-85 + Alpelisib (first compound 0.8 µM), 1.22; with XMD8-85 + Alpelisib (first compound 2.53 µM) it was 1.35; in the assay with XMD8-85 + Alpelisib (first compound 8 µM), 0.734; with 4EGI-1 + Pemetrexed (first compound 0.5 µM) it was 0.198. Also, the relative viability in the assay with 4EGI-1 + Pemetrexed (first compound 1.581 µM) stood at 0.179; with 4EGI-1 + Pemetrexed (first compound 5 µM), 0.206; with 4EGI-1 + Pemetrexed (first compound 15.81 µM) it was 0.156; with 4EGI-1 + Pemetrexed (first compound 50 µM) it was 0.087; with XMD8-85 + Palbociclib (first compound 0.08 µM), 0.342; with XMD8-85 + Palbociclib (first compound 0.253 µM) it was 0.325. The relative viability stood at 0.406 with XMD8-85 + Palbociclib (first compound 0.8 µM); 0.523 with XMD8-85 + Palbociclib (first compound 2.53 µM); 0.282 in the assay with XMD8-85 + Palbociclib (first compound 8 µM); 0.437 in the assay with 4EGI-1 + Pictilisib (first compound 0.5 µM); 0.432 in the assay with 4EGI-1 + Pictilisib (first compound 5 µM); 0.401 with 4EGI-1 + Pictilisib (first compound 15.81 µM). Also, the relative viability with 4EGI-1 + Pictilisib (first compound 50 µM) was determined as 0.27.
Take NCI-H358: the relative viability with XMD8-85 + Alpelisib (first compound 0.08 µM) was determined as 0.957; in the assay with XMD8-85 + Alpelisib (first compound 0.253 µM), 0.856; with XMD8-85 + Alpelisib (first compound 0.8 µM) it was 1.11; with XMD8-85 + Alpelisib (first compound 2.53 µM), 0.854; with XMD8-85 + Alpelisib (first compound 8 µM) it was 0.584; with 4EGI-1 + Pemetrexed (first compound 0.5 µM) it was 0.177. The relative viability with 4EGI-1 + Pemetrexed (first compound 1.581 µM) is 0.187; with 4EGI-1 + Pemetrexed (first compound 5 µM) it was 0.178; with 4EGI-1 + Pemetrexed (first compound 15.81 µM), 0.174; with 4EGI-1 + Pemetrexed (first compound 50 µM) it was 0.165; in the assay with XMD8-85 + Palbociclib (first compound 0.08 µM), 0.244; with XMD8-85 + Palbociclib (first compound 0.253 µM), 0.126. Moreover, the relative viability is 0.138 with XMD8-85 + Palbociclib (first compound 0.8 µM); 0.155 in the assay with XMD8-85 + Palbociclib (first compound 2.53 µM); 0.132 with XMD8-85 + Palbociclib (first compound 8 µM); 0.333 with 4EGI-1 + Pictilisib (first compound 0.5 µM); 0.368 with 4EGI-1 + Pictilisib (first compound 1.581 µM); 0.346 in the assay with 4EGI-1 + Pictilisib (first compound 5 µM). Besides, the relative viability with 4EGI-1 + Pictilisib (first compound 15.81 µM) stood at 0.259; with 4EGI-1 + Pictilisib (first compound 50 µM), 0.223.
Turning to NCI-H1944, the relative viability worked out at 0.815 with XMD8-85 + Alpelisib (first compound 0.08 µM); 0.791 in the assay with XMD8-85 + Alpelisib (first compound 0.253 µM); 0.847 in the assay with XMD8-85 + Alpelisib (first compound 0.8 µM); 0.977 with XMD8-85 + Alpelisib (first compound 2.53 µM); 0.746 with XMD8-85 + Alpelisib (first compound 8 µM); 0.683 with 4EGI-1 + Pemetrexed (first compound 0.5 µM). For the same cell line, the relative viability was found to be 0.668 with 4EGI-1 + Pemetrexed (first compound 5 µM); 0.586 with 4EGI-1 + Pemetrexed (first compound 15.81 µM); 0.331 with 4EGI-1 + Pemetrexed (first compound 50 µM); 0.319 with XMD8-85 + Palbociclib (first compound 0.08 µM); 0.319 with XMD8-85 + Palbociclib (first compound 0.253 µM); 0.362 with XMD8-85 + Palbociclib (first compound 0.8 µM). Besides, the relative viability with XMD8-85 + Palbociclib (first compound 2.53 µM) came to 0.33; with XMD8-85 + Palbociclib (first compound 8 µM), 0.313; with 4EGI-1 + Pictilisib (first compound 0.5 µM), 0.357; with 4EGI-1 + Pictilisib (first compound 5 µM), 0.331; with 4EGI-1 + Pictilisib (first compound 15.81 µM), 0.33; with 4EGI-1 + Pictilisib (first compound 50 µM), 0.285.
As for LU99A, the relative viability with XMD8-85 + Alpelisib (first compound 0.08 µM) was 0.383; with XMD8-85 + Alpelisib (first compound 0.253 µM), 0.531; with XMD8-85 + Alpelisib (first compound 0.8 µM) it was 0.544; in the assay with XMD8-85 + Alpelisib (first compound 2.53 µM), 0.61; with XMD8-85 + Alpelisib (first compound 8 µM) it was 0.431; with 4EGI-1 + Pemetrexed (first compound 0.5 µM), 0.177. The relative viability in the assay with 4EGI-1 + Pemetrexed (first compound 1.581 µM) was determined as 0.179; with 4EGI-1 + Pemetrexed (first compound 5 µM), 0.166; in the assay with 4EGI-1 + Pemetrexed (first compound 15.81 µM) it was 0.248; with 4EGI-1 + Pemetrexed (first compound 50 µM) it was 0.154; in the assay with XMD8-85 + Palbociclib (first compound 0.08 µM), 0.367; with XMD8-85 + Palbociclib (first compound 0.253 µM) it was 0.36. In addition, the relative viability with XMD8-85 + Palbociclib (first compound 0.8 µM) was 0.458; in the assay with XMD8-85 + Palbociclib (first compound 2.53 µM) it was 0.46; with XMD8-85 + Palbociclib (first compound 8 µM) it was 0.368; with 4EGI-1 + Pictilisib (first compound 0.5 µM) it was 0.375; in the assay with 4EGI-1 + Pictilisib (first compound 5 µM) it was 0.346; in the assay with 4EGI-1 + Pictilisib (first compound 15.81 µM), 0.326. Moreover, in the assay with 4EGI-1 + Pictilisib (first compound 50 µM), the relative viability stood at 0.247.
SW 1573: the relative viability with XMD8-85 + Alpelisib (first compound 0.08 µM) was 0.917; with XMD8-85 + Alpelisib (first compound 0.253 µM) it was 0.596; with XMD8-85 + Alpelisib (first compound 0.8 µM) it was 0.745; with XMD8-85 + Alpelisib (first compound 2.53 µM) it was 0.615; with XMD8-85 + Alpelisib (first compound 8 µM) it was 0.663; with 4EGI-1 + Pemetrexed (first compound 0.5 µM) it was 0.963. In addition, the relative viability with 4EGI-1 + Pemetrexed (first compound 1.581 µM) turned out to be 0.742; with 4EGI-1 + Pemetrexed (first compound 5 µM), 0.794; with 4EGI-1 + Pemetrexed (first compound 15.81 µM) it was 0.329; in the assay with 4EGI-1 + Pemetrexed (first compound 50 µM), 0.126; with XMD8-85 + Palbociclib (first compound 0.253 µM), 0.387; in the assay with XMD8-85 + Palbociclib (first compound 0.8 µM), 0.431. Further, the relative viability with XMD8-85 + Palbociclib (first compound 2.53 µM) was 0.365; with XMD8-85 + Palbociclib (first compound 8 µM), 0.192; in the assay with 4EGI-1 + Pictilisib (first compound 0.5 µM), 0.549; in the assay with 4EGI-1 + Pictilisib (first compound 1.581 µM), 0.562; with 4EGI-1 + Pictilisib (first compound 5 µM), 0.461; in the assay with 4EGI-1 + Pictilisib (first compound 15.81 µM) it was 0.445. Also, the relative viability with 4EGI-1 + Pictilisib (first compound 50 µM) was determined as 0.47.
As for HARA, the relative viability came to 0.932 with XMD8-85 + Alpelisib (first compound 0.08 µM); 0.675 in the assay with XMD8-85 + Alpelisib (first compound 0.253 µM); 0.911 with XMD8-85 + Alpelisib (first compound 0.8 µM); 0.445 with XMD8-85 + Alpelisib (first compound 2.53 µM); 0.27 in the assay with XMD8-85 + Alpelisib (first compound 8 µM); 0.266 with 4EGI-1 + Pemetrexed (first compound 0.5 µM). Further, the relative viability in the assay with 4EGI-1 + Pemetrexed (first compound 1.581 µM) was found to be 0.273; in the assay with 4EGI-1 + Pemetrexed (first compound 5 µM), 0.333; with 4EGI-1 + Pemetrexed (first compound 15.81 µM), 0.238; with 4EGI-1 + Pemetrexed (first compound 50 µM), 0.223; with XMD8-85 + Palbociclib (first compound 0.08 µM), 0.278; with XMD8-85 + Palbociclib (first compound 0.253 µM), 0.287. In addition, the relative viability with XMD8-85 + Palbociclib (first compound 0.8 µM) came out at 0.279; in the assay with XMD8-85 + Palbociclib (first compound 2.53 µM) it was 0.247; with XMD8-85 + Palbociclib (first compound 8 µM), 0.195; with 4EGI-1 + Pictilisib (first compound 0.5 µM), 0.48; in the assay with 4EGI-1 + Pictilisib (first compound 1.581 µM) it was 0.428; with 4EGI-1 + Pictilisib (first compound 5 µM), 0.46. In addition, the relative viability in the assay with 4EGI-1 + Pictilisib (first compound 15.81 µM) is 0.375; with 4EGI-1 + Pictilisib (first compound 50 µM), 0.266.
